Series [1] has as its system subjects with T2DM. Put plainly: Lactic acid concentration by treatment. To be noted: during the three day treatment period. In kind it is in vivo, human. On the procedure:
(§1) For each treatment period, subjects were admitted to the clinical facility on the evening of Day -1 to undergo check-in procedures including a physical examination, 12-lead ECG, vital signs, clinical laboratory tests (chemistry, hematology and urinalysis), lactic acid measurement, fasting blood glucose measurement, alcohol screen, drugs of abuse screen and pregnancy test (if applicable). On each study day morning, a fasting blood sugar measurement was determined by glucose monitor. On Days 1 and 2, vital signs and a 12-lead ECG were recorded. Samples for clinical laboratory measure were also taken on Days 1 and 3. Subjects returned to the clinic 7–10 days following the last dosing day for a follow-up physical examination and laboratory evaluation. During the between-treatment intervals, subjects were provided with glucose monitors to measure fasting blood glucose concentrations; subjects were instructed as to how to recognize and treat symptoms of hypoglycemia. Adverse events were monitored throughout the entire study (randomization to follow-up visit). Any adverse events reported during the study were assessed by the investigator for intensity (mild, moderate, severe) and relationship to the study drug (causality). Where possible, all adverse events were followed until stabilization, resolution, or until the event was otherwise explained.

Series [2] is described as follows: Statistical comparison of PK parameters with and without co-administered drug (drug-drug interaction). In kind it is in vivo, human. The protocol: Safety and PD parameters were summarized using descriptive statistics. […] The PROC MIXED from SAS (Version 8.2, Cary, NC, USA) was used to fit the model. The estimates and the 90% CI were exponentiated in order to obtain the ratio of geometric means and its CI. The assumptions underlying the model were assessed by visual inspection of residual plots. […] Tmax was analysed non-parametrically using Hodges–Lehmann method.

Series [3] relates to subjects with T2DM. As to the kind of experiment: Fasting plasma glucose change from baseline. Format: in vivo, human. To be noted: baseline pre-dose Day 1 to Day 2 and Day 3. On the procedure:
FPG concentrations were collected on Day -1, 1, 2 and 3. Changes in plasma glucose from baseline (Day 1) to Day 2 and 3 were calculated.

Series [4] deals with panel of metabolic enzymes and transporters, including organic cation transporters. The arrangement: method as in earlier work. The following applies: panel including organic cation transporters involved with metformin renal secretion; cited from earlier work.
The subject of the next series is rats. The following applies: cited from earlier work.
Series [5] has as its system healthy subjects and subjects with T2DM. Also noted: method as in PMID 21733056, PMID 23668634. To be noted: single oral doses up to 1000 mg in healthy subjects, up to 1000 mg BID for 2 weeks in T2DM; cited from earlier work.
The nature of the next series: clinical. The source says:
Subjects were randomized to receive one of two treatment sequences depicted in Table 1. […] The last dose of drug for each study period was before breakfast on day 3. […] On the evening before each treatment period, subjects were admitted and confined to the clinical site for the duration of the 3-day treatment period. Pharmacokinetic (PK), pharmacodynamic (PD; urine glucose and FPG), and safety (adverse events, vital signs, ECG, clinical laboratory parameters including lactic acid) assessments were performed at check-in and throughout the treatment periods. For each treatment period, the PK sampling occurred on Day 3.
All sample times are relative to the time of the administration of the first dose of study medication on Day 3 of each period. […] Blood samples for remogliflozin etabonate, remogliflozin and GSK279782 were collected into tubes containing potassium-oxalate/ sodium fluoride, placed on ice and centrifuged at approximately 3000 rpm for 10 minutes at approximately 4°C. The harvested plasma was frozen at -70°C until analysis for remogliflozin etabonate, remogliflozin and GSK279782 concentrations.
The concentrations of remogliflozin etabonate, remogliflozin, and GSK279782 in deproteinized plasma samples and standards were determined by high-performance liquid chromatography (HPLC) with tandem mass spectrometry (MS/MS) using isotopically labelled internal standards ([^2H7]- remogliflozin etabonate, [^2H7]- remogliflozin and [^2H7]-GSK279782 as previously described.
Plasma proteins from a […] plasma aliquot were precipitated using acetonitrile containing the internal standard (200 ng mL-1). Samples were vortex mixed then centrifuged. The resulting supernatant was transferred and mixed with […] of HFBA buffer (water containing 10 mM ammonium acetate and 0.26% (v/v) of heptofluorobutyric acid) prior to injection. HPLC was performed on a Shimadzu LC-10A HPLC system. Chromatography was performed on a MAC-MOD Ace 3 C18, 4.6 × 50 mm column at a flow rate of 1.0 mL min-1. An isocratic mobile phase elution with 82:18 (v/v) HFBA buffer : Acetonitrile was used. Samples were analysed in positive ion mode by Turbo Ionspray LC/MS/MS with a PE/Sciex API 3000. The calibration range was 20 to 5000 ng mL-1. Performance of the method was assessed during a 3 day validation study using quality control samples at 5 concentrations 20, 80, 500, 4000 and 5000 ng mL-1.
Actual elapsed time from dosing was used to estimate all individual plasma PK parameters.
• Cmax and tmax were the actual observed values.
• AUC(0–12) or AUC(0–last) was calculated by a combination of linear and logarithmic trapezoidal methods. The linear trapezoidal method was used for all incremental trapezoids arising from increasing concentrations and the logarithmic trapezoidal method was used for those arising from decreasing concentrations.

Series [6] has as its system subjects with T2DM. Put plainly: Clinical safety and tolerability (adverse events, laboratory parameters, vital signs). Format: in vivo, human. The following applies: N = 13. The protocol:
as §1

For series [7], the system named is subjects with T2DM. Put plainly: 24-hour urine glucose excretion in subjects with T2DM. Format: in vivo, human. On the procedure:
Urine was collected on Days 1 to 3 of each treatment period, and urine glucose concentrations were analyzed for the following intervals: 0–4 hours, 4–8 hours, 8–12 hours and 12–24 hours. The quantity of glucose and creatinine excreted in urine was determined by multiplying the urine glucose or creatinine concentration for each time interval by the volume of urine for the corresponding collection interval. The total 24-hour quantity of glucose excreted in urine on Day 2 was calculated by adding the amounts collected during each interval. Urine glucose and creatinine amounts were summarized for each collected interval and for the total 24-hour collection period.

The test system of another series is mice. To be noted: cited from earlier work.
In a further series the test system is diabetic rodent models. To be noted: several diabetic rodent models; cited from earlier work.
In series [8] the test system is subjects with T2DM. As to the kind of experiment: Fluid intake, urine volume and fluid balance. To be noted: Day 1, 0–24-hour interval, intake minus output. Format: in vivo, human. From the text:
Total fluid intake, urine volume, and fluid balance (intake minus output) were summarized over the 0–24-hour interval of Day 1 and Day 2 and the 0–12-hour interval of Day 3 of each treatment period.

Series [9] deals with subjects with T2DM. As to the kind of experiment: Percent of filtered glucose excreted in the urine. Format: in vivo, human. The following applies: for percent filtered glucose excreted in urine, max / percent filtered glucose excreted in urine, mean (SD) / percent filtered glucose excreted in urine, median / percent filtered glucose excreted in urine, min: Day 2, N = 13; for percent of filtered glucose excreted in the urine, mean: combined 24 hour collection, Day 2. The protocol: Creatinine clearance (CLcr) was calculated on Day 2 and used to determine the percent of filtered glucose load excreted in urine. By using the urine collections on Day 2, CLcr was calculated as follows:
Clcr=totalamountofurinecreatinine0-xxhinterval/nearestassociatedserumcreatinine=urinecreatininemg/xxhours/serumcreatininemg/dL*100mL/dL/xx*60minutes/xxhours,
where urine creatinine (mg/xx hours) is the amount of […] excreted in a xx-hour period. Urine creatinine was calculated by multiplying the urine creatinine concentration by the urine volume (mL) for a 0-xxh time interval as follows:
urinecreatininemg/xxhours=urinecreatinineconcentrationmg/dL*intervalvolumemL/100mL/dL.
Percent of filtered glucose excreted in the urine was estimated for all collection intervals on Day 2 as follows:
GlucoseAmountExcreted/Clcr*PG*TimeIntervalorUrineglucosemg/dL*SerumCreatininemg/dL/urinecreatininemg/dL*PGmg/dL
where glucose amount excreted is the amount of glucose excreted during the xx-hour period, and CLcr is calculated for the xx-hour time interval. PG is the plasma glucose concentration reported closest to the midpoint of the time interval. Because only pre-dose PG was collected in this study, the pre-dose PG on Day 2 was used. Time interval is the number of minutes of urine collection for that interval.

The conditions of series [10]: cited from earlier work.
For series [11] the following is noted: treatment for 2 weeks, subjects with T2DM; cited from earlier work.
[12] abbreviates: human, in vivo, 500 mg, AUC(0–12).

Turning to `CCOC(=O)OC[C@H]1O[C@@H](Oc2nn(C(C)C)c(C)c2Cc2ccc(OC(C)C)cc2)[C@H](O)[C@@H](O)[C@@H]1O` [Remogliflozin etabonate], the mean lactate concentrations result in the series on subjects with T2DM [1] was “unchanged or decreased slightly”. Further, in [2] (MET + RE / RE), the “AUC(0-last) point estimate (GLSM Ratio)” value is given as 1.00 and the “Cmax point estimate (GLSM Ratio)” value is reported as 0.85. For the same compound, the “decrease in Cmax” value in [2] (MET + RE compared to remogliflozin etabonate alone) is reported as 15%. Besides, the “effect of metformin on AUC” value in series [2] (MET + RE vs remogliflozin etabonate alone) is reported as “no effects”. In addition, in the series with subjects with T2DM [3], the “changes in fasting plasma glucose concentrations from baseline” value is recorded as “small decreases”. In addition, in series [4], the “inhibition of metabolic enzymes and transporters” value is “lack of inhibition”. Moreover, in the series with rats, the urinary glucose excretion result was “increase urinary glucose excretion in a dose-dependent manner”. The safety and tolerability entry in series [5] is “safe and well tolerated”. In “clinical” (human, in vivo), the Tmax was determined as 3 h and the Cmax stood at 79.5 ng/mL. Besides, the AUC(0-t) in the series “clinical” (human, in vivo, AUC(0–last)) turned out to be 98.9 ng·h/mL. In addition, in the series with subjects with T2DM [6], the Abdominal pain upper is listed as 1 (8%) n (%), the “Any Event” value is recorded as 2 (15%) n (%), the Back pain was 0 n (%) and the Dizziness is 0 n (%). Besides, in the series on subjects with T2DM [6], the Dyspepsia is 0 n (%), the Fatigue is on record as 0 n (%), the Headache is recorded as 0 n (%) and the Hypoglycemia is 0 n (%). Besides, in the series with subjects with T2DM [6], the Muscle spasms is recorded as 1 (8%) n (%), the Nasopharyngitis is on record as 0 n (%), the Neck pain is 0 n (%) and the Osteoarthritis is 0 n (%). Also, in the series on subjects with T2DM [6], the Rash was 0 n (%), the Toothache is listed as 0 n (%) and the Wound is recorded as 0 n (%). In addition, in the series on subjects with T2DM [7] (Day 2, N = 13), the “24-hour urine glucose, max” value is on record as 796 mmol; the “24-hour urine glucose, median” value came out at 497 mmol; the “24-hour urine glucose, min” value amounted to 384 mmol. The urinary glucose excretion result in the series on mice is “increase urinary glucose excretion in a dose-dependent manner”. Further, the antidiabetic efficacy entry with diabetic rodent models is on record as “exhibit antidiabetic efficacy”. Moreover, in the series with subjects with T2DM [8], the “fluid balance (median)” value is recorded as -1145 mL. In the series with subjects with T2DM [9], the “percent filtered glucose excreted in urine, max” value is recorded as 61.3%; the “percent filtered glucose excreted in urine, mean (SD)” value is 51.3 (7.02) percent; the “percent filtered glucose excreted in urine, median” value is given as 51.8%; the “percent filtered glucose excreted in urine, min” value worked out at 38.4%. For the same compound, the “percent of filtered glucose excreted in the urine, mean” value in the series with subjects with T2DM [9] is reported as “approximately 50%”.

Take `CN(C)C(=N)N=C(N)N` [Metformin, reference compound]: the mean lactate concentrations result in the series with subjects with T2DM [1] was “increase or increasing trend”. Besides, in series [2] (metformin PK with MET + RE vs MET), the “effect of remogliflozin etabonate on PK parameters” value is reported as “no effect”. Moreover, the “changes in fasting plasma glucose concentrations from baseline” value in the series with subjects with T2DM [3] was “remained relatively stable”. Moreover, the renal excretion in series [10] is listed as 3 times the glomerular filtration rate. Further, the AUC(0-t) in “clinical” (setting [12]) stood at 7140 ng·h/mL. Besides, the Cmax in the series “clinical” (human, in vivo) worked out at 1020 ng/mL. The Tmax in the series “clinical” (plasma, Day 3, MET BID, median (range)) is 4.0 (1.0 - 6.0) h. For the same compound, in the series with subjects with T2DM [6], the Abdominal pain upper is 0 n (%), the “Any Event” value was 5 (38%) n (%), the Back pain is 2 (15%) n (%) and the Dizziness was 1 (8%) n (%). For the same compound, in the series with subjects with T2DM [6], the Dyspepsia is recorded as 0 n (%), the Fatigue was 1 (8%) n (%), the Headache is reported as 2 (15%) n (%) and the Hypoglycemia is 1 (8%) n (%). For the same compound, in the series on subjects with T2DM [6], the Muscle spasms is listed as 1 (8%) n (%), the Nasopharyngitis is recorded as 0 n (%), the Neck pain is recorded as 1 (8%) n (%) and the Osteoarthritis was 0 n (%). Further, in the series on subjects with T2DM [6], the Rash is recorded as 0 n (%), the Toothache is on record as 1 (8%) n (%) and the Wound was 0 n (%). Besides, the “effect on urine glucose output” value in the series on subjects with T2DM [7] (Day 2) was “relatively no effect”. In the series with subjects with T2DM [7] (Day 2, N = 13), the “24-hour urine glucose, max” value was 43.9 mmol; the “24-hour urine glucose, mean (SD)” value is 13.6 (13.4) mmol; the “24-hour urine glucose, median” value amounted to 10.9 mmol; the “24-hour urine glucose, min” value is reported as 1.1 mmol. Moreover, the “fluid balance (median)” value in the series with subjects with T2DM [8] is recorded as -775 mL. For the same compound, in the series on subjects with T2DM [9], the “percent filtered glucose excreted in urine, max” value is 4.71%; the “percent filtered glucose excreted in urine, mean (SD)” value is listed as 1.41 (1.52) percent; the “percent filtered glucose excreted in urine, median” value worked out at 0.95%; the “percent filtered glucose excreted in urine, min” value worked out at 0.10%. Besides, in the series with subjects with T2DM [9], the “percent of filtered glucose excreted in the urine, mean” value is listed as 1.4%.

As to `Cc1c(Cc2ccc(OC(C)C)cc2)c(O[C@@H]2O[C@H](CO)[C@@H](O)[C@H](O)[C@H]2O)nn1C(C)C` [Remogliflozin], in series [4], the “inhibition of metabolic enzymes and transporters” value is listed as “lack of inhibition”. In “clinical” (human, in vivo), the Tmax stood at 3 h and the Cmax is 2690 ng/mL. In the series “clinical” (setting [12]), the AUC(0-t) was determined as 6810 ng·h/mL.

Take `NS(=O)(=O)c1cc2c(cc1Cl)NCNS2(=O)=O` [hydrochlorothiazide]: the “effect on the clearance of metformin” value in series [11] is recorded as “no significant effect”.

These data come from PMC3682882 (BMC Pharmacology & Toxicology, 2013).
